Source: publication PMC1082716, “Blockade of chemokine-induced signalling inhibits CCR5-dependent HIV infection in vitro without blocking gp120/CCR5 interaction” (Retrovirology, 2005)
“Also recorded” adds a separate entry of the source.

Key:
[1] = tested on: CCR5; experiment: Specific binding of biotinylated gp120:V3(BaL) peptide to THP-1 cells; details: 100 μM biotinylated gp120:V3(BaL); various concentrations of Peptide 3; 10^6 cells in 100 μl, 4°C; non-specific binding (10 mM unlabelled peptide) subtracted
Description: The binding of gp120 to chemokine receptors is likely to involve sequences in the V3 loop of gp120 [28, 20]. We therefore synthesised peptide sequences from the V3 loop of the M-tropic BaL strain and the T-tropic IIIb strain and analysed the binding of these biotinylated peptides to the THP-1 and Jurkat cells. Specific (competable) binding of gp120:V3(BaL) to THP-1 cells was detected at 100 μM (Fig 1a). In contrast, specific binding of gp120:V3(BaL) to Jurkat cells was not detected even at concentrations up to 500 μM (Fig 1a). […]
Figure 1 Specific binding of gp120:V3 loop peptides to THP-1 and Jurkat cells. […] Specific binding is expressed as the absorbance in the absence of unlabelled peptide minus the absorbance in the presence of competitor (b) Binding of gp120:V3(IIIb)-biotin under the same conditions as in (a). […]
Cells (either Jurkat T-cells or THP-1 cells) were grown in RPMI 1640 medium supplemented with 10% fetal calf serum, 2 mM glutamine, 20 μM β-mercaptoethanol, 100 U/ml penicillin and 100 μg/ml streptomycin and maintained between 2 × 10^5 and 1 × 10^6 cells/ml. […] The plate was spun (3,000 × g; 3 mins) and 200 μl of the coloured product was transferred to an empty 96-well ELISA plate and the absorbance at 450 nm determined.

[2] = target: T1, CXCR4 (Homo sapiens, UniProt P61073); experiment: Specific binding of biotinylated gp120:V3(IIIb) peptide to Jurkat cells; details: 100 μM biotinylated gp120:V3(IIIb); various concentrations of inhibitor; 10^6 cells in 100 μl, 4°C; triplicate
T1 construct: CXCR4, which is expressed on both THP-1 and Jurkat cells, but at higher levels on the T-cell line; endogenous in cells; host or cells: Jurkat T-cells (whole cells, 10^6 per well, 4°C)

[3] = tested on: RANTES-induced chemotaxis; experiment: RANTES-/MIP1α-induced chemotaxis (ChemoTx transwell); format: cell-based; details: RANTES per text, 25 ng/ml MIP1α per Fig 2f legend; 5 × 10^4 cells per well; 2 h, 37°C; MTT; triplicate
Description: Figure 2 Effect of Peptide 3 on gp120:V3 loop peptide binding to cells. (a) The binding of 100 μM N-terminal biotinylated gp120:V3(IIIb) to THP-1 cells was measured in the presence of various concentrations of peptide 3. In each case, the non-specific binding (in the presence of 10 mM unlabelled gp120:V3 loop peptide) has been subtracted. (b) Chemotaxis in response to 100 ng/ml SDF1α was measured in the presence of various concentrations of peptide 3. […] (e) As for (a) except that the effect of Peptide 3 on the binding of gp120:V3(BaL) to THP-1 cells was determined. (f) As for (b) except that the effect of Peptide 3 on chemotaxis induced by 25 ng/ml MIP1α was determined. All binding reactions were performed with 10^6 cells in 100 μl of binding medium at 4°C. Chemotaxis assays were performed with 5 × 10^4 cells per well. Values are mean ± SEM of triplicate determinations.
Chemotaxis experiments were performed essentially as previously described, using the ChemoTx disposable 96-well transwell migration plates, with PVP-free membrane (6 μm pore size). […] The number of cells which had migrated to the lower compartment was determined using the vital dye MTT and interpolation of a standard curve. Each condition was determined in triplicate, and the number of cells migrating in the absence of chemoattractant was subtracted to determine the chemokine-dependent chemotaxis which was reported.

T1 sequence (P61073 whole entry): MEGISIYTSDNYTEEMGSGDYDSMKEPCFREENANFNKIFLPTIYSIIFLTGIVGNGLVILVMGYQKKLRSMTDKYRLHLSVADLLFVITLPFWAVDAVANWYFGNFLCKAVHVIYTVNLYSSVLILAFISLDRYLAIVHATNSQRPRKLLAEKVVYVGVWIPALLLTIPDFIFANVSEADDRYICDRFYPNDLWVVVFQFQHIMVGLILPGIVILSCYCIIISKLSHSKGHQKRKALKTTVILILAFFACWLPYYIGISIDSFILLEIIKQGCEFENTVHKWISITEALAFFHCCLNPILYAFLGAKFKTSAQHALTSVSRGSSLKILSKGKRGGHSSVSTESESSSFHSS

**Q.** How did the “Effect on gp120 binding to CCR5 (gp120:V3(BaL) to THP-1 cells)” value [1] turn out when EICADPKQKWVQ [Peptide 3] was run?
**A.** The value was “no effect; also recorded: unaffected”.

**Q.** What about the “Effect on binding of gp120:V3(IIIb) to Jurkat cells” value [2] of the same sequence?
**A.** The value was “no effect”.

**Q.** What about the “Effect on RANTES-induced chemotaxis” value [3] of the same sequence?
**A.** Its value is “powerfully inhibited; also recorded: profoundly blocked”.
